# Legend:
# Pyricularia oryzae = experiment: microbe, parasite or virus in culture; format: cell-based; conditions: for Efficacy: inhibition of fungal growth, liquid culture; for inhibition at 20 ppm: Pyricularia oryzae, 120 h, read-out: efficacy (inhibition of fungal growth)
# Septoria tritici = experiment: Example D: in vivo preventive test on Septoria tritici (leaf spot on wheat)
# Method: Example D: In Vivo Preventive Test on Septoria tritici (Leaf Spot on Wheat)
# (§1) • Solvent: 5% by volume of dimethyl sulfoxide • 10% by volume of acetone • Emulsifier: 1 μL of Tween® 80 per mg of active ingredient
# The active compounds were made soluble and homogenized in a mixture of dimethyl sulfoxide/acetone//Tween® 80 and then diluted in water to the desired concentration.
# The young plants of wheat were treated by spraying the active compound prepared as described above. Control plants were treated only with an aqueous solution of acetone/dimethyl sulfoxide/Tween® 80.
# After 24 hours, the plants were contaminated by spraying the leaves with an aqueous suspension of Septoria tritici spores. The contaminated wheat plants were incubated for 72 hours at 18° C. and at 100% relative humidity and then for 21 days at 20° C. and at 90% relative humidity.
# The test was evaluated 24 days after the inoculation. 0% means an efficacy which corresponds to that of the control plants while an efficacy of 100% means that no disease is observed.
# Botrytis cinerea = experiment: Example B: in vivo preventive test on Botrytis cinerea (grey mould); conditions: evaluated 4 to 5 days after inoculation
# Method: Example B: In Vivo Preventive Test on Botrytis cinerea (Grey Mould)
# as §1
# The tested compounds were made soluble and homogenized in a mixture of dimethyl sulfoxide/acetone//Tween® 80 and then diluted in water to the desired concentration.
# The young plants of gherkin were treated by spraying the tested compounds prepared as described above. Control plants were treated only with an aqueous solution of acetone/dimethyl sulfoxide/Tween® 80.
# After 24 hours, the plants were contaminated by spraying the leaves with an aqueous suspension of Botrytis cinerea spores. The contaminated gherkin plants were incubated for 4 to 5 days at 17° C. and at 90% relative humidity.
# The test was evaluated 4 to 5 days after the inoculation. 0% means an efficacy which corresponds to that of the control plants while an efficacy of 100% means that no disease is observed.
# [1] = log P by HPLC on reversed-phase column (C18), EEC Directive 79/831 Annex V.A8; format: physicochemical; conditions: for chromatographic logP: reversed-phase HPLC column (C18)
# In short: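 Retention time on C18 reversed-phase HPLC at 40 °C, gradient 10% to 95% acetonitrile with either 0.1% aqueous formic acid (Method A) or 0.001 molar ammonium acetate (Method B). Calibrated with unbranched alkan-2-ones (C3–C16) of known log P by linear interpolation between successive alkanones.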
# [2] = dose 0.06 ppm, 5 days incubation
# [3] = dose 0.25 ppm, 5 days incubation
# [4] = 4 ppm of active ingredient, 5 days incubation
# [5] = 500 ppm of active ingredient, gherkin plants, preventive
# [6] = dose 500 ppm, preventive spray on gherkin plants
# [7] = Method A: 40° C., 0.1% aqueous formic acid and acetonitrile
# [8] = Method B: 40° C., 0.001 molar ammonium acetate solution in water and acetonitrile
smiles,measurement,setting,value
"Cc1nc2c(F)c(F)ccc2cc1Oc1ccccc1C[Si](C)(C)C [CMP1, 7,8-difluoro-2-methyl-3-{2-[(trimethylsilyl)methyl]phenoxy}quinoline, reference compound]",Efficacy,Pyricularia oryzae; [2],1%
same,Efficacy,Pyricularia oryzae; [3],56%
same,efficacy (inhibition of fungal growth),Pyricularia oryzae; dose of 0.25 ppm or 0.06 ppm,much lower efficacy
same,Efficacy,"Septoria tritici; 500 ppm of active ingredient, evaluated 24 days after inoculation",no protection
same,Efficacy,"Septoria tritici; Table D, dose 500 ppm",0%
"C[Si](C)(C)c1cc(F)ccc1Oc1ccnc2c(Cl)cccc12 [CMP2, 8-chloro-4-[4-fluoro-2-(trimethylsilyl)phenoxy]quinoline, reference compound]",Efficacy,"Pyricularia oryzae; 1 ppm, 5 days incubation",0%
same,efficacy (inhibition of fungal growth),Pyricularia oryzae; [4],much lower efficacy
same,Efficacy,"Pyricularia oryzae; 4 ppm, 5 days incubation",46%
same,Efficacy,"Pyricularia oryzae; 20 ppm, 5 days incubation",93%
"Cc1cc(Oc2cccc(F)c2[Si](C)(C)C)c2ccc(F)c(F)c2n1 [CMP3, 7,8-difluoro-4-[3-fluoro-2-(trimethylsilyl)phenoxy]-2-methylquinoline, reference compound]",Efficacy,"Pyricularia oryzae; 1 ppm, 5 days incubation",0%
same,efficacy (inhibition of fungal growth),Pyricularia oryzae; [4],much lower efficacy
same,Efficacy,"Pyricularia oryzae; 4 ppm, 5 days incubation",25%
same,Efficacy,"Pyricularia oryzae; 20 ppm, 5 days incubation",96%
same,Efficacy,Botrytis cinerea; [5],no efficacy
same,Efficacy,Botrytis cinerea; [6],0%
"C[Si](C)(C)c1c(F)cccc1Oc1ccnc2cccnc12 [CMP4, 4-[3-fluoro-2-(trimethylsilyl)-phenoxy]-1,5-naphthyridine, reference compound]",Efficacy,"Pyricularia oryzae; 1 ppm, 5 days incubation",0%
same,efficacy (inhibition of fungal growth),Pyricularia oryzae; [4],much lower efficacy
same,Efficacy,"Pyricularia oryzae; 4 ppm, 5 days incubation",11%
same,Efficacy,"Pyricularia oryzae; 20 ppm, 5 days incubation",44%
same,Efficacy,Botrytis cinerea; [5],no efficacy
same,Efficacy,Botrytis cinerea; [6],0%
"C[Si](C)(C)c1ccccc1Oc1cnc2ccccc2c1 [I.001, 3-[2-(trimethylsilyl)phenoxy]quinoline]",inhibition at 20 ppm,Pyricularia oryzae,90 to 100%
same,chromatographic logP,[1]; [7],5.17
"C[Si]1(c2c(F)cccc2Oc2cnc3ccccc3c2)CCC1 [I.008, 3-[3-fluoro-2-(1-methylsiletan-1-yl)phenoxy]quinoline]",inhibition at 20 ppm,Pyricularia oryzae,90 to 100%
same,chromatographic logP,[1]; [7],5.39
"C[Si]1(C)OCc2cccc(Nc3cnc4ccccc4c3)c21 [I.010, N-(1,1-dimethyl-1,3-dihydro-2,1-benzoxasilol-7-yl)quinolin-3-amine]",inhibition at 20 ppm,Pyricularia oryzae,80 to 89%
same,chromatographic logP,[1]; [8],3.15
C[Si](C)(C)c1cc(F)ccc1Oc1cnc2c(Cl)cccc2c1 [I.019],Efficacy,"Pyricularia oryzae; 1 ppm, 5 days incubation",45%
same,Efficacy,"Pyricularia oryzae; 4 ppm, 5 days incubation",98%
same,Efficacy,"Pyricularia oryzae; 20 ppm, 5 days incubation",97%
same,logP,[1]; [7],5.62
Cc1nc2c(F)c(F)ccc2cc1Oc1ccccc1[Si](C)(C)C [I.024],Efficacy,Pyricularia oryzae; [2],89%
same,Efficacy,Pyricularia oryzae; [3],96%
same,efficacy (inhibition of fungal growth),Pyricularia oryzae; dose of 0.25 ppm or 0.06 ppm,at least 80%
same,logP,[1]; [7],6.01
same,Efficacy,"Septoria tritici; Table D, dose 500 ppm",81%
"Cc1nc2c(F)c(F)ccc2cc1Oc1ccccc1[Si](C)(C)O [I.026, {2-[(7,8-difluoro-2-methylquinolin-3-yl)oxy]phenyl}(dimethyl)silanol]",inhibition at 20 ppm,Pyricularia oryzae,90 to 100%
same,chromatographic logP,[1]; [7],3.51
Cc1nc2c(F)c(F)ccc2cc1Oc1cccc(F)c1[Si](C)(C)C [I.027],Efficacy,"Pyricularia oryzae; 1 ppm, 5 days incubation",85%
same,Efficacy,"Pyricularia oryzae; 4 ppm, 5 days incubation",94%
same,Efficacy,"Pyricularia oryzae; 20 ppm, 5 days incubation",100%
same,logP,[1]; [8],5.54
same,Efficacy,Botrytis cinerea; [6],92%
"Cc1nc2c(F)c(F)ccc2cc1Oc1cccc(F)c1[Si](C)(C)F [I.032, 7,8-difluoro-3-{3-fluoro-2-[fluoro(dimethyl)silyl]phenoxy}-2-methylquinoline]",inhibition at 20 ppm,Pyricularia oryzae,90 to 100%
same,chromatographic logP,[1]; [7],4.75
"Cc1nc2ccccc2cc1Oc1ccccc1[Si](C)(C)C [I.047, 2-methyl-3-[2-(trimethylsilyl)phenoxy]quinoline]",inhibition at 20 ppm,Pyricularia oryzae,90 to 100%
same,chromatographic logP,[1]; [7],4.85
"C[SiH](c1ccccc1)c1c(F)cccc1Oc1cc2ccccc2nc1Cl (centres unmarked) [I.062, 2-chloro-3-{3-fluoro-2-[methyl(phenyl)silyl]phenoxy}quinoline]",inhibition at 20 ppm,Pyricularia oryzae,90 to 100%
same,chromatographic logP,[1]; [7],5.78
C[Si](C)(C)c1c(F)cccc1Oc1cnc2cccnc2c1 [I.116],Efficacy,"Pyricularia oryzae; 1 ppm, 5 days incubation",90%
same,Efficacy,"Pyricularia oryzae; 4 ppm, 5 days incubation",100%
same,Efficacy,"Pyricularia oryzae; 20 ppm, 5 days incubation",100%
same,logP,[1]; [7],4.15
same,Efficacy,Botrytis cinerea; [6],73%
Nc1ccccc1Nc1cnc2ccccc2c1 [IVa.01],logP,[1]; logP Method A,1.28
Cc1nc2ccccc2cc1Oc1cccc(F)c1N [IVa.02],logP,[1]; logP Method A,2.15
Nc1ccccc1Oc1cnc2c(F)c(F)ccc2c1 [IVa.03],logP,[1]; logP Method A,2.71
Nc1c(F)cccc1Oc1cnc2c(F)c(F)ccc2c1 [IVa.04],logP,[1]; logP Method A,3.02
"Cc1nc2c(F)c(F)ccc2cc1Oc1ccccc1N [IVa.05, 2-[(7,8-difluoro-2-methylquinolin-3-yl)oxy]aniline]",chromatographic logP,[1]; [7],2.99
same,chromatographic logP,[1]; logP Method A,2.99
Cc1nc2c(F)c(F)ccc2cc1Oc1cccc(F)c1N [IVa.06],logP,[1]; logP Method A,3.27
Cc1nc2ccccc2cc1Oc1ccccc1N [IVa.07],logP,[1]; logP Method A,1.66
CC[Si](CC)(CC)c1ccccc1O [IX.01A],chromatographic logP,[1]; logP Method A,4.72
CC[Si](CC)(CC)c1c(O)cccc1F [IX.02A],chromatographic logP,[1]; logP Method A,4.69
CC[Si](C)(C)c1ccccc1O [IXa.04],logP,[1]; logP Method B,3.90
C[Si](C)(Cc1ccccc1)c1ccccc1O [IXa.06],logP,[1]; logP Method A,5.14
OC(c1cccc(F)c1)c1cnc2ccccc2c1 (centres unmarked) [VII.01A],chromatographic logP,[1]; logP Method A,1.54
O=C(c1cccc(F)c1)c1cnc2ccccc2c1 [VII.02A],chromatographic logP,[1]; logP Method A,2.73
Fc1cccc(Nc2cc3ccccc3nc2C(F)F)c1 [VII.03A],chromatographic logP,[1]; logP Method A,3.68
[O-][S+](c1cccc(F)c1)c1cnc2ccccc2c1 (centres unmarked) [VII.04A],chromatographic logP,[1]; logP Method A,2.1
O=S(=O)(c1cccc(F)c1)c1cnc2ccccc2c1 [VII.05A],chromatographic logP,[1]; logP Method A,2.68
"Fc1cccc(Oc2cc3ccccc3nc2Cl)c1 [VIIa.01, 2-chloro-3-(3-fluorophenoxy)quinoline]",chromatographic logP,[1]; [7],3.99
same,chromatographic logP,[1]; logP Method A,3.99
CCOc1nc2ccccc2cc1Oc1cccc(F)c1 [VIIa.02],logP,[1]; logP Method A,4.74
CSc1nc2ccccc2cc1Oc1cccc(F)c1 [VIIa.03],logP,[1]; logP Method A,4.92
Cc1nc2ccccc2cc1Oc1cccc(F)c1 [VIIa.04],logP,[1]; logP Method A,2.96
"Fc1cccc(Oc2cnc3ccccc3c2)c1 [VIIa.05, 3-(3-fluorophenoxy)quinoline]",chromatographic logP,[1]; [7],3.21
same,chromatographic logP,[1]; logP Method A,3.21
"[O-][n+]1cc(Oc2cccc(F)c2)cc2ccccc21 [VIIa.06, 3-(3-fluorophenoxy)quinoline 1-oxide]",chromatographic logP,[1]; [7],2.14
same,chromatographic logP,[1]; logP Method A,2.14
O=[N+]([O-])c1c(F)cccc1Oc1cnc2c(F)c(F)ccc2c1 [Va.01],logP,[1]; logP Method A,3.35
Cc1nc2c(F)c(F)ccc2cc1Oc1cccc(F)c1[N+](=O)[O-] [Va.02],logP,[1]; logP Method A,3.64
O=[N+]([O-])c1ccccc1Oc1cnc2c(F)c(F)ccc2c1 [Va.03],logP,[1]; logP Method A,3.06
"Cc1nc2c(F)c(F)ccc2cc1Oc1ccccc1[N+](=O)[O-] [Va.04, 7,8-difluoro-2-methyl-3-(2-nitrophenoxy)quinoline]",chromatographic logP,[1]; [7],3.37
same,chromatographic logP,[1]; logP Method A,3.42
O=[N+]([O-])c1c(F)cccc1Oc1cnc2ccccc2c1 [Va.05],logP,[1]; logP Method A,3.13
Cc1nc2ccccc2cc1Oc1cccc(F)c1[N+](=O)[O-] [Va.06],logP,[1]; logP Method A,3.15
O=[N+]([O-])c1ccccc1Oc1cnc2ccccc2c1 [Va.07],logP,[1]; logP Method A,1.62
Cc1nc2ccccc2cc1Oc1ccccc1[N+](=O)[O-] [Va.08],logP,[1]; logP Method A,2.64
CC1(C)OB(Cc2ccccc2[Si](C)(C)C)OC1(C)C [XIIa.01],logP,[1]; logP Method A,5.68
"CC(=O)COc1ccccc1[Si](C)(C)C [XIV.01, 1-[2-(trimethylsilyl)phenoxy]acetone]",chromatographic logP,[1]; [7],1.39
same,chromatographic logP,[1]; logP Method A,1.39
C[Si](C)(c1ccccc1)c1ccccc1CBr [XIa.03],logP,[1]; logP Method A,5.46
"C[Si](C)(c1ccc(Cl)cc1)c1ccccc1CBr [XIa.06, [2-(bromomethyl)phenyl](4-chlorophenyl)dimethylsilane]",chromatographic logP,[1]; [7],5.94
same,chromatographic logP,[1]; logP Method A,5.94

# Source: patent US10683311B2 (priority 2015, dated 2020)
